How the values were obtained:
[1] = Absorbed radiation dose calculations (OLINDA/EXM), extrapolated from mouse data; set-up: species or system human; conditions: 70 kg male adult
Procedure: Radiation doses (mGy/GBq) for major human organs (male) were calculated using the OLINDA/EXM Version 1.1 software. The organ-specific radiation absorbed doses following the administration of ^177Lu-PSMA-617 to humans were estimated based on residence times derived from mouse data and are presented in Table 1. […] The overall effective dose was 0.127 mSv/MBq. These findings provide critical insights into the dosimetry profile of ^177Lu-PSMA-617, aiding in the assessment of its safety and therapeutic potential.
The absorbed radiation dose calculations were performed as previously reported. For the estimation of mean absorbed doses in humans, the relative organ mass scaling method was used. The calculated mean value of the percentage injected activity per gram of tissue (%IA/g) for the organs in mice was extrapolated to the uptake amount in the organs of a 70 kg adult using the following formula:[(%IA/gorgan)animal × (kgTB weight)animal] × (gorgan/kgTB weight)human = (%IA/organ)human
The extrapolated values (%IA) in human organs at 1, 4, 24, and 48 h were fitted with exponential biokinetic models and integrated to obtain the number of disintegrations in the source organs; this information was entered into the OLINDA/EXM computer program. The integrals (MBq-s) for 11 organs, including heart contents (blood), the heart, the liver, the spleen, the lung, the kidney, muscle, the brain, bone, the small intestine, and the remainder of the body, were evaluated and used for the dosimetry evaluation.

PSMA = target: T1, PSMA (Homo sapiens, UniProt Q04609); assay: Saturation binding assay on intact LNCaP cells; conditions: 1 h at 4 °C
T1 construct: host or cells: LNCaP human prostate cancer cells
Procedure: The competitive inhibition assay was performed in 10^5 LNCaP cells/well as previously described. The radioligand (^177Lu-PSMA-617) was added as a 0.75 nM solution to 10 different concentrations of non-labeled, ^natLu-labeled PSMA-617 (from 0.01 to 10,000 nM). After 1 h of incubation at 4 °C, the cells were washed with ice-cold PBS, and the cell-bound radioactivity was measured in a gamma counter (PerkinElmer, Waltham, MA, USA). The IC50 (half-maximal inhibitory concentration) value was determined using GraphPad Prism version 5.0 (Graph Pad Software, San Diego, CA, USA). Determination of the dissociation constants (Kd values) was performed by saturation binding assays using LNCaP cells. A total of 10^5 cells were seeded in 96-well plates (cells in 100 µL of the RPMI medium/well), allowing adhesion and growth overnight at 37 °C and 5% CO2. […] The Kd values were determined by plotting specific binding (total binding minus unspecific binding) against the molar concentration of the added radioligands followed by nonlinear regression analysis using the GraphPad Prism 5 software. The binding affinity (Ki) of ^177/natLu-PSMA-617 was calculated using the following formula as described previously: Ki = IC50/[1 + ([radioligand]/Kd)].

[2] = Radiochemical stability in human serum (iTLC); format: in vitro ADME
Procedure: A precursor amount of 50 nmol was labeled with Lutetium-177, achieving a radiochemical yield of over 99% and a molar activity of 25.5 GBq/μmol within 15 min at 95 °C. The radiochemical purity of ^177Lu-PSMA-617 (Rt = 7.47 min) exceeded 98%, as determined by radio-HPLC and iTLC analyses (Figure 1). To assess radiolytic stability, ^177Lu-PSMA-617 was incubated in human serum at 4, 25, and 37 °C for 1, 24, 48, and 72 h. […] However, after 72 h, less than 5% and 4% of free ^177Lu was detected at 4 °C and 25 °C, respectively. […] These findings are consistent with other studies. […] The ability to maintain radiolabeling over an extended period reinforces its viability for targeted radiopharmaceutical therapy and molecular imaging in oncology.
Radiolabeling was conducted as previously described. A total of 1 GBq of non-carrier added lutetium-177 (Isotopia Molecular Imaging, Petach Tikva, Israel) was mixed with 100 μL of a sodium acetate solution (0.4 M, pH 5.5), 1.25 μL of an ascorbic acid solution (20% w/w), and 5 μL of a PSMA-617 solution (10 mM, Ontores Biotechnology Co., Ltd., Hangzhou, China). The mixture solution was subjected to heating at a temperature of 95 °C while being placed on a shaker for 15 min. The labeling efficiency was measured using instant thin-layer chromatography (iTLC) on the glass microfiber chromatography paper impregnated with a silica gel (Agilent Technologies, Santa Clara, CA, USA), where 100 mM EDTA in 100 mM ammonium acetate acts as a mobile phase as described previously. The iTLC sheets were measured using a radioactive scanner (AR-2000 radio-TLC Imaging Scanner, Bioscan, Evreux, France). The labeling rate of >90% was acceptable as performed in the in vitro and in vivo studies. Radiochemical purity was also analyzed by high-performance liquid chromatography (HPLC) with a UV detector (220 nm) and a radio detector using a Zorbax SB-C18 column (Agilent Technologies, Santa Clara, CA, USA). The flow rate was 0.8 mL/min with the gradient mobile phase going from the 80% A buffer (0.1% TFA in water) and 20% B buffer (0.1% TFA in acetonitrile) to the 40% B buffer within 20 min. A sterile 0.9% sodium chloride solution was added before injections in mice. The radiochemical stability of ^177Lu-PSMA-617 in human serum up to 96 h at 4, 25, and 37 °C was tested by iTLC.

T1 sequence (Q04609 whole entry): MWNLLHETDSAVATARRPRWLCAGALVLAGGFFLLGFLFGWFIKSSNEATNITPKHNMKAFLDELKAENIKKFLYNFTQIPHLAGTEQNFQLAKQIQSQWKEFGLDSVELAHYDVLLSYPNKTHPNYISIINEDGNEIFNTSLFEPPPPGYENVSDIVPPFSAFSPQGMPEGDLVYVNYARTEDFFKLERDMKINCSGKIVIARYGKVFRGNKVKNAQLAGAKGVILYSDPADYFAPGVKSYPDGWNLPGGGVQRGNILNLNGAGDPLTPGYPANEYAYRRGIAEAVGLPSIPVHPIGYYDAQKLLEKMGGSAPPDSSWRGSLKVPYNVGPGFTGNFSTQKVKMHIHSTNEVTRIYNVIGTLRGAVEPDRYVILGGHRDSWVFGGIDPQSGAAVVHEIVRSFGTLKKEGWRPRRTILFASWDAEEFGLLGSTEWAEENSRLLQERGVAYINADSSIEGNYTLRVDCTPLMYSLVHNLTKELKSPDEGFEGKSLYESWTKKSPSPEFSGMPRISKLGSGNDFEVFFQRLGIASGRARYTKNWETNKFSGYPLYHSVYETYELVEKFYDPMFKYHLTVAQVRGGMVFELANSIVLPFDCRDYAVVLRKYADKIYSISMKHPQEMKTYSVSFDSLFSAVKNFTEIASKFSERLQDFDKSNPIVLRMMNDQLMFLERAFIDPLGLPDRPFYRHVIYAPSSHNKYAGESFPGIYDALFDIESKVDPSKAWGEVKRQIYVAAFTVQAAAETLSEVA

O=C([O-])CN1CCN(CC(=O)[O-])CCN(CC(=O)NCC2CCC(C(=O)N[C@@H](Cc3ccc4ccccc4c3)C(=O)NCCCC[C@H](NC(=O)N[C@@H](CCC(=O)O)C(=O)O)C(=O)O)CC2)CCN(CC(=O)[O-])CC1.[177Lu+3] (stereo partly drawn) [^177Lu-PSMA-617]
Estimated Dose ([1]; Adrenals): 8.15E−04 mSv/MBq
Estimated Dose ([1]; Brain): 3.54E−05 mSv/MBq
Estimated Dose ([1]; Breasts): 7.86E−03 mSv/MBq
Estimated Dose ([1]; Kidneys): 2.19E−04 mSv/MBq
Estimated Dose ([1]; LLI Wall): 2.01E−02 mSv/MBq
Estimated Dose ([1]; Liver): 5.81E−04 mSv/MBq
Estimated Dose ([1]; Lungs): 1.47E−03 mSv/MBq
Estimated Dose ([1]; Muscle): 6.33E−05 mSv/MBq
Estimated Dose ([1]; Osteogenic Cells): 4.98E−03 mSv/MBq
Estimated Dose ([1]; Pancreas): 8.27E−04 mSv/MBq
Estimated Dose ([1]; Red Marrow): 1.47E−02 mSv/MBq
Estimated Dose ([1]; Skin): 1.54E−03 mSv/MBq
Estimated Dose ([1]; Small Intestine): 8.52E−04 mSv/MBq
Estimated Dose ([1]; Spleen): 6.92E−05 mSv/MBq
Estimated Dose ([1]; Stomach Wall): 1.98E−02 mSv/MBq
Estimated Dose ([1]; Testes): 2.16E−02 mSv/MBq
Estimated Dose ([1]; Thymus): 8.01E−04 mSv/MBq
Estimated Dose ([1]; Thyroid): 8.08E−03 mSv/MBq
Estimated Dose ([1]; ULI Wall): 8.45E−04 mSv/MBq
Estimated Dose ([1]; Urinary Bladder Wall): 8.32E−03 mSv/MBq
Estimated Dose ([1]; Uterus): 8.48E−04 mSv/MBq
Effective Dose ([1]; overall effective dose): 1.27E−01 mSv/MBq
Kd (PSMA): 4.36 ± 0.664 nM
free activity ([2]; human serum, 4 °C, after 2 h): 1.2%
free activity ([2]; human serum, 25 °C, after 2 h): less than 1.1%
free activity ([2]; human serum, after 48 h, at 4, 25 and 37 °C): no detectable free activity
free 177Lu ([2]; human serum, after 72 h, 4 °C): less than 5%
free 177Lu ([2]; human serum, after 72 h, 25 °C): < 4%
release of free activity ([2]; human serum, up to 72 h at 37 °C): without any release of free activity
free 177Lu ([2]; over a 72 h observation period, 37 °C): less than 5%

Reference: article PMC12250129, “Exploring the Therapeutic Potential of ^177Lu-PSMA-617 in a Mouse Model of Prostate Cancer Bone Metastases” (International Journal of Molecular Sciences, 2025)
